pIC50: −log10 of the molar value.

Chain of CBP (Q92793 1081-1197): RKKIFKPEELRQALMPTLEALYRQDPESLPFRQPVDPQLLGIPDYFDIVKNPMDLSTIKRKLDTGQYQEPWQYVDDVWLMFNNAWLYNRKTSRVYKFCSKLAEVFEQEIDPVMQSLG

The first test addresses CBP (Homo sapiens (Human), UniProt Q92793). In words: In vitro CBP inhibition (AlphaScreen, biotinylated H4-tetraacetyl peptide). In kind it is binding.
Details: not given
In a few lines:
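His-tagged CBP expressed in E. coli (50 nM final) incubated with biotinylated H4K5/8/12/16(Ac) peptide (20 nM final) in 50 mM HEPES pH 7.3, 10 mM NaCl, 0.25 mM TCEP, 0.1% BSA, 0.005% Brij-35, 0.4% DMSO, 20 min at room temp.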
(Bead proximity is the source of the signal in Alpha formats.)
One may read the pIC50 as the negative decadic logarithm of the IC50, by convention in mol/L. Consider `Cn1cc(-c2cnn(C(c3ccccc3)C3CC3)c2)ccc1=O` (stereo not shown) [Example 2], for which the pIC50 was 5.30 to 6.30.

The same test, now with this note: AlphaScreen, Table 29; read-out: CBP IC50.
Turning to `CCOc1cc(=O)n(C)cc1-c1cnn(-c2ccccc2S(C)(=O)=O)c1` [Example 180, 4-Ethoxy-5-[1-(2-methanesulfonyl-phenyl)-1H-pyrazol-4-yl]-1-methyl-1H-pyridin-2-one], the pIC50 is above 6.30.
As for `Cn1cc(-c2cnn(-c3cccc(F)c3C#N)c2)c(-c2ccc(OC3CCCC3)nc2)cc1=O` [Example 361], the pIC50 is above 6.30.
The same measure, in the same setting: then `CCCn1cc(-c2cn(C)c(=O)cc2-c2ccccc2)cn1` [Example 139, 1-methyl-4-phenyl-5-(1-propyl-1H-pyrazol-4-yl)pyridin-2(1H)-one], with above 6.30; and `CCOc1cc(=O)n(C)cc1-c1cnn2c1CCC2` [Example 95, 5-(5,6-dihydro-4H-pyrrolo[1,2-b]-pyrazol-3-yl)-4-ethoxy-1-methylpyridin-2(1H)-one], with above 6.30; and `CCn1cc(-c2cnn(Cc3ccccc3)c2)ccc1=O` [Example 10, 5-(1-benzyl-1H-pyrazol-4-yl)-1-ethylpyridin-2(1H)-one], with 5.30 to 6.30.
Still for that read-out and setting: then `Cn1cc(-c2cnn(-c3cccc(C4CC4)c3C#N)c2)c(-c2ccc(OCC3CC3)nc2)cc1=O` [Example 391, 2-cyclopropyl-6-(4-(6-(cyclopropylmethoxy)-1′-methyl-6′-oxo-1′,6′-dihydro-[3,4′-bipyridin]-3′-yl)-1H-pyrazol-1-yl)benzonitrile], with above 6.30.
On the same count and under the same terms, then `CCOc1cc(=O)n(C)cc1-c1cnn(Cc2ccc(C(C)C)cc2)c1` [Example 101, 4-ethoxy-5-[1-(4-isopropyl-benzyl)-1H-pyrazol-4-yl]-1-methyl-1H-pyridin-2-one], with above 6.30; and `Cn1cc(-c2cnn(Cc3ccccc3)c2)c(-n2cccn2)cc1=O` [Example 66, 5-(1-benzyl-1H-pyrazol-4-yl)-1-methyl-4-(1H-pyrazol-1-yl) pyridin-2(1H)-one], with 5.30 to 6.30.
As for `CCOc1cc(=O)n(C)cc1-c1cnn(Cc2ccccc2C(=O)OC)c1` [Example 70, methyl 2-((4-(4-ethoxy-1-methyl-6-oxo-1,6-dihydropyridin-3-yl)-1H-pyrazol-1-yl)methyl)benzoate], the pIC50 was above 6.30.
The same measure, in the same setting: under `CC(C)COc1cc(=O)n(C)cc1-c1cnn(C(C)c2ccccc2)c1` (stereo not shown) [Example 48, 4-isobutoxy-1-methyl-5-(1-(1-phenylethyl)-1H-pyrazol-4-yl) pyridin-2(1H)-one] stands above 6.30.
Same read-out and setting: then `Cn1cc(-c2cnn(-c3ccccc3C#N)c2)c(-c2ccccc2)cc1=O` [Example 212, 2-[4-(1-Methyl-6-oxo-4-phenyl-1,6-dihydro-pyridin-3-yl)-pyrazol-1-yl]-benzonitrile], with above 6.30; and `Cn1cc(-c2cnn(-c3ccccc3-c3nnn[nH]3)c2)c(-c2ccc(Cl)cc2)cc1=O` [Example 297, 5-(1-(2-(1H-tetrazol-5-yl)phenyl)-1H-pyrazol-4-yl)-4-(4-chlorophenyl)-1-methylpyridin-2(1H)-one], with above 6.30; and `CC(=O)NC[C@@H]1CCN(c2cc(=O)n(C)cc2-c2cnn(Cc3ccccc3)c2)C1` (stereo in doubt) [Example 89, N-{1-[5-(1-benzyl-1H-pyrazol-4-yl)-1-methyl-2-oxo-1,2-dihydro-pyridin-4-yl]-pyrrolidin-3-ylmethyl}-acetamide], with above 6.30.
Still for that read-out and setting: under `COc1ccc(C(=O)O)c(-n2cc(-c3cn(C)c(=O)cc3-c3ccc(OC)nc3)cn2)c1` [Example 270, 4-Methoxy-2-[4-(6-methoxy-1′-methyl-6′-oxo-1′,6′-dihydro-[3,4′]bipyridinyl-3∝-yl)-pyrazol-1-yl]-benzoic acid] stands above 6.30; under `Cn1cc(-c2cnn(Cc3ccccc3)c2)c(-c2ccc(=O)[nH]c2)cc1=O` [Example 194, 5′-(1-Benzyl-1H-pyrazol-4-yl)-1′-methyl-1H,1′H-[3,4′]bipyridinyl-6,2′-dione], above 6.30; under `CCOc1cc(=O)n(C)cc1-c1cnn(-c2ccccc2)c1` [Example 96, 4-ethoxy-1-methyl-5-(1-phenyl-1H-pyrazol-4-yl) pyridin-2(1H)-one], above 6.30.
On to `Cn1cc(-c2cnn(Cc3ccccc3)c2)c(-n2ccc(C(=O)O)c2)cc1=O` [Example 79, 1-(5-(1-benzyl-1H-pyrazol-4-yl)-1-methyl-2-oxo-1,2-dihydropyridin-4-yl)-1H-pyrrole-3-carboxylic acid], for which the negative-log IC50 (pIC50) is above 6.30.
Still for that read-out and setting: then `CCOc1cc(=O)n(C)cc1-c1cnn(C2CCCN(S(C)(=O)=O)C2)c1` (stereo not shown) [Example 181, 4-ethoxy-1-methyl-5-(1-(1-(methylsulfonyl)piperidin-3-yl)-1H-pyrazol-4-yl)pyridin-2(1H)-one], with above 6.30; and `Cn1cc(-c2cnn(Cc3ccccc3)c2)c(-c2cccs2)cc1=O` [Example 116, 5-(1-benzyl-1H-pyrazol-4-yl)-1-methyl-4-(thiophen-2-yl) pyridin-2(1H)-one], with above 6.30; and `COCCNc1ncc(-c2cc(=O)n(C)cc2-c2cnn(-c3cccc(Cl)c3C#N)c2)cn1` [Example 326, 2-chloro-6-(4-(4-(2-((2-methoxyethyl)amino)pyrimidin-5-yl)-1-methyl-6-oxo-1,6-dihydropyridin-3-yl)-1H-pyrazol-1-yl)benzonitrile], with above 6.30.
As for `Cn1cc(-c2cnn(C3CCOCC3)c2)c(-c2ccccc2)cc1=O` [Example 126, 1-methyl-4-phenyl-5-(1-(tetrahydro-2H-pyran-4-yl)-1H-pyrazol-4-yl) pyridin-2(1H)-one], the negative-log IC50 (pIC50) was above 6.30.
On to `CC(C)Oc1ccc(-c2cc(=O)n(C)cc2-c2cnn(-c3ccccc3C#N)c2)cn1` [Example 235, 2-[4-(6-Isopropoxy-1′-methyl-6′-oxo-1′,6′-dihydro-[3,4′]bipyridinyl-3′-yl)-pyrazol-1-yl]-benzonitrile], for which the pIC50 was above 6.30.
Same read-out and setting: then `Cn1cc(-c2cnn(-c3ccccc3C#N)c2)c(-c2ccc(F)cc2)cc1=O` [Example 215, 2-{4-[4-(4-Fluoro-phenyl)-1-methyl-6-oxo-1,6-dihydro-pyridin-3-yl]-pyrazol-1-yl}-benzonitrile], with above 6.30; and `Cn1cc(-c2cnn(Cc3ccccc3)c2)c(NCCC(=O)O)cc1=O` [Example 201, 3-((5-(1-benzyl-1H-pyrazol-4-yl)-1-methyl-2-oxo-1,2-dihydropyridin-4-yl)amino)propanoic Acid], with above 6.30; and `C[C@@H](c1ccccc1)n1cc(-c2cn(C)c(=O)cc2-n2cccn2)cn1` [Example 60, (S)-1-methyl-5-(1-(1-phenylethyl)-1H-pyrazol-4-yl)-4-(1H-pyrazol-1-yl)pyridin-2(1H)-one], with above 6.30.
On the same count and under the same terms, then `COc1ccc(-c2cc(=O)n(C)cc2-c2cnn(Cc3ccccc3)c2)cc1` [Example 120, 5-(1-benzyl-1H-pyrazol-4-yl)-4-(4-methoxyphenyl)-1-methyl-pyridin-2(1H)-one], with above 6.30; and `Cc1cc(-c2cnn(-c3cc(Oc4ccccc4)ccc3C(=O)O)c2)cn(C)c1=O` [Example 259, 2-[4-(1,5-Dimethyl-6-oxo-1,6-dihydro-pyridin-3-yl)-pyrazol-1-yl]-4-phenoxy-benzoic acid], with below 5.30.
For the compound `Cn1ccc(-c2cc(=O)n(C)cc2-c2cnn(-c3ccccc3C(=O)NC#N)c2)cc1=O` [Example 293, N-cyano-2-(4-(1,1′-dimethyl-2′,6-dioxo-1,1′,2′,6-tetrahydro-[4,4′-bipyridin]-3-yl)-1H-pyrazol-1-yl)benzamide], the pIC50 is above 6.30.
Same read-out and setting: under `Cn1cc(-c2cnn(-c3cccc(Cl)c3C#N)c2)c(-c2ccc(N3CCCC3)nc2)cc1=O` [Example 349, 2-chloro-6-[4-[1-methyl-6-oxo-4-(6-pyrrolidin-1-yl-3-pyridyl)-3-pyridyl]pyrazol-1-yl]benzonitrile] stands above 6.30.
Take `Cn1cc(-c2cnn(-c3ccccc3C#N)c2)c(-c2ccc(=O)[nH]c2)cc1=O` [Example 206, 2-[4-(1′-Methyl-6,6′-dioxo-1,6,1′,6′-tetrahydro-[3,4′]bipyridinyl-3′-yl)-pyrazol-1-y]benzonitrile]: the pIC50 is above 6.30.
On the same count and under the same terms, under `Cn1cc(-c2cnn(-c3cccc(C4CC4)c3C#N)c2)c(-c2ccc(OCCF)nc2)cc1=O` [Example 387, 2-cyclopropyl-6-[4-[4-[6-(2-fluoroethoxy)-3-pyridyl]-1-methyl-6-oxo-3-pyridyl]pyrazol-1-yl]benzonitrile] stands above 6.30; under `COc1ncc(-c2cc(=O)n(C)cc2-c2cnn(-c3ccccc3Cl)c2)cn1` [Example 315, 5-(1-(2-chlorophenyl)-1H-pyrazol-4-yl)-4-(2-methoxypyrimidin-5-yl)-1-methylpyridin-2(1H)-one], above 6.30; under `COc1cc(=O)n(C)cc1-c1cnn(C(C)c2ccccc2)c1` (stereo not shown) [Example 175, 4-methoxy-1-methyl-5-(1-(1-phenylethyl)-1H-pyrazol-4-yl) pyridin-2(1H)-one], above 6.30.
As to `CC(C)Oc1ccc(-c2cc(=O)n(C)cc2-c2cnn(-c3ccccc3C(=O)O)c2)cn1` [Example 231, 2-[4-(6-Isopropoxy-1′-methyl-6′-oxo-1′,6′-dihydro-[3,4′]bipyridinyl-3′-yl)-pyra.zol-1-yl]-benzoic acid], the pIC50 is above 6.30.
On to `Cn1cc(-c2cnn(-c3cccc(Cl)c3C#N)c2)c(-c2cnc(NCC3CC3)nc2)cc1=O` [Example 327, 2-chloro-6-(4-(4-(2-((cyclopropylmethyl)amino)pyrimidin-5-yl)-1-methyl-6-oxo-1,6-dihydropyridin-3-yl)-1H-pyrazol-1-yl)benzonitrile], for which the pIC50 is above 6.30.

The same test, now with this note: Table 30; read-out: CRREBBP IC50.
On to `Cc1sc2c(c1C)C(c1ccc(Cl)cc1)=N[C@@H](CC(=O)OC(C)(C)C)c1nnc(C)n1-2` [JQ-1, tert-butyl (S)-2-(4-(4-chloro-phenyl)-2,3,9-trimethyl-6H-thieno[3,2-f][1,2,4]triazolo[4,3-a][1,4]diazepin-6-yl)acetate, reference compound], for which the pIC50 is below 5.30.

Source of the values: patent US10617680B2 (CELGENE QUANTICEL RESEARCH, INC., priority 2017, dated 2020).
